Test results: US20220000804A1, “INTRANASAL NANO INDUCER FOR PREVENTING AND TREATING NEURODEGENERATIVE DISEASES AND METHOD THEREOF” (Nasal-Phyto (SZ) Pharmaceutical Technology Co., Ltd., priority 2019, published 2022)

Columns and labels:
[1] = Dissolution/dispersion in water and organic solvents, Tyndall effect; assay type: physicochemical
Neuroma blast cells N2a = assay: Cytotoxicity test (MTT method); assay type: cell-based; conditions: 24 hours after drug addition
Method: A group of Neuroma blast cells N2a that are cultured in a blank medium without hydrophobic drugs (i.e., the curcumin analog M1) defines a negative control group, and a rate of cell viability of the Neuroma blast cells N2a in the negative control group is calculated as 100%. FIG. 8 illustrates the results.

solubility in tetrahydrofuran ([1]; tetrahydrofuran): soluble in tetrahydrofuran
dissolution / dispersion in water ([1]; water): difficultly dissolved in water
SMILES: COc1ccccc1/C=C/C(=O)/C=C/c1ccccc1OC [curcumin analog M1]
cytotoxicity (cell survival rate) (Neuroma blast cells N2a): dose-dependent cytotoxicity
